According to US6083964A, “Optical resolution of racemic aminoalkylpyridine anticonvulsants and (+) aminoalkylpyridine enantiomers as highly potent orally effective anticonvulsant drugs and excitatory amino acid antagonists” (K and K Biosciences, Inc., priority 1999, dated 2000):

Assays:
hippocampal kindled rats = assay: Hippocampal kindled rat model, i.p.; format: in vivo; set-up: key to Seizure Score ± S.E.M.: Racine seizure class scale; class 5 = rearing and falling
From the text: "Kindling" refers to the process whereby repeated administration of an initially subconvulsive electrical stimulus results in progressive intensification of epileptic discharge culminating in a generalized seizure. Kindling can be induced by electrical stimulation of many sites in the brain, especially in "limbic" areas, which include amygdala, hippocampus, and entorhinal cortex [Racine, R., Neurosurgery, 3, 234-252 (1978)]. Kindling is reliably produced by a one second train of 60 Hz square wave stimuli of one millisecond duration at current levels which initially produce only a slight afterdischarge (AD), but no behavioral response. Repeated stimulation, typically once daily, results in a progressive increase in AD amplitude, duration and complexity with subsequent spread to other brain areas culminating in a fully generalized motor seizure. [Racine, R. J. and Zaide, J., In "Mechanisms, the Continuing Evolution of the Limbic System Concept" (K. E. Livingston and O. Hornykiewicz, eds.), Plenum Press, pp. 457-493, 1978.
The development of kindling in the rat has been characterized by five (1 to 5) behavioral and electrographic "classes". The behavior in classes 1 (facial clonus) and 2 (head nodding) mimics that found in human complex partial seizures; the behavior in other classes would be consistent with limbic seizures evolving to generalized motor seizures. An animal is considered to be fully kindled once the enhanced sensitivity has developed, as evidenced by a class 5 seizure (rearing and falling).
The (+) AAP enantiomer, compound 1 in Table 1, was tested in the hippocampal kindled rat, by the i.p. route. […]
The (-) AAP enantiomer, compound 2 in Table 1, was also tested in the hippocampal kindled rat, by the i.p. route.

[1] = tested on: pentylenetetrazol (Metrazole) seizure threshold in mice; assay: Timed intravenous Metrazol (PTZ) seizure threshold test in mice, i.p.; format: in vivo, mouse; conditions: mice
From the text: A compound that is active in the MES test and prevents seizure spread, can lower seizure threshold at the same time. Such a compound would have proconvulsant activity while at the same time prevent generalized tonic seizures. […] The timed intravenous pentylenetetrazol (Metrazol) seizure threshold test in mice identifies those MES compounds with proconvulsant potential.
Mice were given the (+) and (-) enantiomers, compounds 1 and 2 in Table 1, intraperitoneally at the ED50 and TD50. At the time of maximal MES activity, an intravenous infusion of 0.5% heparinized solution of pentylenetetrazol (PT2) (0.34 ml/min) was started. The time to the appearance of the first myoclonic jerk (twitch) and the subsequent sustained clonic seizure (clonus) were the measured endpoints. Results were obtained for groups of ten treated and ten saline control mice and converted to the dose in mg/kg of PTZ necessary to produce the two endpoints.
Experiments were performed using three doses of 0, 36 and 149 mg/kg on each of 10 animals per dosage group. The time to "twitch" and the time to "clonus", the two components of the seizure elicited by the infusion of metrazol, were observed.

[2] = tested on: maximal electroshock seizure (MES) in rats; assay: Maximal electroshock seizure (MES) test, rats, p.o.; format: in vivo, rat (Sprague-Dawley); conditions: rat, p.o., listed as (1) (-) Enantiomer
From the text: The (+) AAP enantiomers obtained by optical resolution of racemic AAPs and the resulting highly orally effective anticonvulsant compositions of this invention are useful in the treatment of convulsive disorders. […] A series of (+) AAP enantiomers and (-) AAP enantiomers of this invention has been evaluated for anticonvulsant activity by the intraperitoneal (i.p.) and by the oral (p.o.) route using two standard seizure models in the mouse and in the rat, the maximal electroshock seizure (MES) test and the subcutaneous pentylenetetrazol (Metrazole) seizure threshold (scMet) test. […] The following Table 2 presents the results of these anticonvulsant tests with respect to several (+) and (-) AAP enantiomeric compounds derived from optical resolution of racemic AAPs of the present invention. This Table 2 identifies the specific compounds tested by their chemical name and provides the test model, the route of administration, the animal species used, and the anticonvulsant activity and toxicity in terms of ED50 and TD50 values, (the median effective and toxic dose respectively), when intraperitoneally administered to mice, and when orally administered to rats. The Maximal Electroshock Seizure Test (MES): Maximal electroshock seizures are elicited with a 60 Hz alternating current of 50 mA intensity in mice and about 150 mA intensity in rats (5-7 times that necessary to elicit minimal electroshock seizures), delivered for 0.2 sec via corneal electrodes. A drop of 0.9% saline is instilled in the eye prior to application of the electrodes in order to […]. Abolition of the hind limb tonic extension component of the seizure is defined as protection and results are expressed as number of animals protected/number of animals tested. The Subcutaneous Pentylenetetrazol (Metrazole) Seizure Threshold Test (scMet): A 0.5% solution of 85 mg/kg of pentylenetetrazol is administered subcutaneously in the posterior midline 30 minutes or 4 hours after drug administration to the animal. […] This species will be the subject of the complete anticonvulsant quantification test evaluation as described above, but after oral (gavage) administration of the candidate compound.

CC(Nc1ccc(Cl)cc1)c1ccncc1 (single isomer, unassigned; (-)) [Compound 2, (-) N-(4-Chlorophenyl)-1-(4-pyridyl)ethylamine]
Afterdischarge Duration (sec) ± S.E.M. (hippocampal kindled rats; 100 mg/kg i.p., 15 min): 69.88 ± 8.29 s | Seizure Score ± S.E.M. (hippocampal kindled rats; 100 mg/kg i.p., 15 min, Table 3 value * significantly different from control): 4.63 ± 0.38 | Afterdischarge Duration (sec) ± S.E.M. (hippocampal kindled rats; 100 mg/kg i.p., 45 min): 74.88 ± 10.31 s | Seizure Score ± S.E.M. (hippocampal kindled rats; 100 mg/kg i.p., 45 min, Table 3 value * significantly different from control): 4.25 ± 0.49 | Afterdischarge Duration (sec) ± S.E.M. (hippocampal kindled rats; 100 mg/kg i.p., 75 min): 82.50 ± 6.11 s | Seizure Score ± S.E.M. (hippocampal kindled rats; 100 mg/kg i.p., 75 min, Table 3 value * significantly different from control): 4.75 ± 0.16 | Afterdischarge Duration (sec) ± S.E.M. (hippocampal kindled rats; 100 mg/kg i.p., 105 min): 75.75 ± 11.71 s | Seizure Score ± S.E.M. (hippocampal kindled rats; 100 mg/kg i.p., 105 min, Table 3 value * significantly different from control): 4.50 ± 0.50 | Afterdischarge Duration (sec) ± S.E.M. (hippocampal kindled rats; 100 mg/kg i.p., 135 min): 82.63 ± 5.04 s | Seizure Score ± S.E.M. (hippocampal kindled rats; 100 mg/kg i.p., 135 min): 4.75 ± 0.16 | Afterdischarge Duration (sec) ± S.E.M. (hippocampal kindled rats; 100 mg/kg i.p., 165 min): 79.00 ± 12.92 s | Seizure Score ± S.E.M. (hippocampal kindled rats; 100 mg/kg i.p., 165 min): 4.13 ± 0.61 | # Protected/# Tested (hippocampal kindled rats; 100 mg/kg i.p., 195 min): 2/8 | Afterdischarge Duration (sec) ± S.E.M. (hippocampal kindled rats; 100 mg/kg i.p., 195 min): 69.25 ± 11.15 s | Seizure Score ± S.E.M. (hippocampal kindled rats; 100 mg/kg i.p., 195 min): 3.88 ± 0.67 | Afterdischarge Duration (sec) ± S.E.M. (hippocampal kindled rats; 100 mg/kg i.p., 225 min): 83.75 ± 5.17 s | Seizure Score ± S.E.M. (hippocampal kindled rats; 100 mg/kg i.p., 225 min): 4.25 ± 0.16 | Afterdischarge Duration (sec) ± S.E.M. (hippocampal kindled rats; 100 mg/kg i.p., 255 min): 73.13 ± 11.97 s | Seizure Score ± S.E.M. (hippocampal kindled rats; 100 mg/kg i.p., 255 min): 4.00 ± 0.50 | Afterdischarge Duration (sec) ± S.E.M. (hippocampal kindled rats; 100 mg/kg i.p., 285 min): 84.50 ± 6.76 s | Seizure Score ± S.E.M. (hippocampal kindled rats; 100 mg/kg i.p., 285 min): 4.83 ± 0.17 | activity in hippocampal kindled rat (in words) (hippocampal kindled rats; i.p.): only moderate activity | amount of PTZ required to produce the twitch and clonus and time to twitch and time to clonus (in words) [1]: only in modest amounts | ED50 ([2]; MES test): 25.8 mg/kg | P.I. (protective index, TD50/ED50) ([2]; MES): > 19.4
